Measured values reported in patent US12234216B2, “Isotopologues salts, crystalline forms, stereoisomers, of methylone and ethylone and methods of use thereof” (Terran Biosciences Inc., priority 2021, dated 2025).

Assay: Metabolic stability in human liver microsomes
Assay type: in vitro ADME
Conditions: for difference in half-life and intrinsic clearance compared with the corresponding non-deuterated methylone hydrochloride: human liver microsomes; for CLint (μL/min/mg protein): human liver microsomes 0.5 mg/mL, 1 μM compound, NADPH, 0-45 min
Description: Pooled liver microsomes are purchased from a reputable commercial supplier. Microsomes are stored at […] prior to use. Microsomes (final protein concentration 0.5 mg/mL), 0.1 M phosphate buffer pH 7.4 and test compound (final substrate concentration 1 μM; final DMSO concentration 0.25%) are preincubated at 37° C. prior to the addition of NADPH (final concentration 1 mM) to initiate the reaction. A minus cofactor control incubation is included for each compound tested where 0.1 M phosphate buffer pH 7.4 is added instead of NADPH (minus NADPH). Two control compounds are included with each species. All incubations are performed singularly for each test compound. Each compound is incubated for 0, 5, 15, 30 and 45 min. The control (minus NADPH) is incubated for 45 min only. The reactions are stopped by transferring incubate into acetonitrile at the appropriate time points, in a 1:3 ratio. The termination plates are centrifuged at 3,000 rpm for 20 min at 4° C. to precipitate the protein.
From a plot of ln peak area ratio (compound peak area/internal standard peak area) against time, the gradient of the line is determined. Subsequently, half-life and intrinsic clearance are calculated using the equations below: Elimination rate constant (k)=(−gradient) Half-life (t½)(min)=0.693/k Intrinsic clearance (CLint)(μL/min/mg protein)=V×0.693/t½ where V=Incubation volume (μL)/Microsomal protein (mg)
Relevant control compounds were assessed, ensuring intrinsic clearance values fall within the specified limits (if available).

With Cl.[2H]C1([2H])Oc2ccc(C(=O)[C@H](C)NC)cc2O1 [(S)-Methylone-d2 hydrochloride, (S)-1-(benzo[d][1,3]dioxol-5-yl-2,2-d2)-2-(methylamino)propan-1-one hydrochloride] the “difference in half-life and intrinsic clearance compared with the corresponding non-deuterated methylone hydrochloride” value was “differences in half-life and intrinsic clearance”.
With Cl.[2H]C([2H])([2H])N[C@H](C)C(=O)c1ccc2c(c1)OC([2H])([2H])O2 [(R)-Methylone-d5 hydrochloride, (R)-1-(benzo[d][1,3]dioxol-5-yl-2,2-d2)-2-((methyl-d3)amino)propan-1-one HCl] the “difference in half-life and intrinsic clearance compared with the corresponding non-deuterated methylone hydrochloride” value was “most significant difference in half-life and intrinsic clearance” and the “CLint (μL/min/mg protein)” value was 6.27 μL/min/mg protein.
For Cl.[2H]C1([2H])Oc2ccc(C(=O)[C@@H](C)NC)cc2O1 [(R)-Methylone-d2 hydrochloride, (R)-1-(benzo[d][1,3]dioxol-5-yl-2,2-d2)-2-((methyl)amino)propan-1-one HCl], the “difference in half-life and intrinsic clearance compared with the corresponding non-deuterated methylone hydrochloride” value was “differences in half-life and intrinsic clearance”.
For Cl.[2H]C([2H])([2H])N[C@H](C)C(=O)c1ccc2c(c1)OCO2 [(R)-Methylone-d3 hydrochloride, (R)-1-(benzo[d][1,3]dioxol-5-yl)-2-((methyl-d3)amino)propan-1-one HCl], the “difference in half-life and intrinsic clearance compared with the corresponding non-deuterated methylone hydrochloride” value was “differences in half-life and intrinsic clearance”.
In the case of Cl.[2H]C([2H])([2H])NC(C)C(=O)c1ccc2c(c1)OC([2H])([2H])O2 (racemic) [(rac)-Methylone-d5 hydrochloride, 1-(benzo[d][1,3]dioxol-5-yl-2,2-d2)-2-((methyl-d3)amino)propan-1-one HCl], the “difference in half-life and intrinsic clearance compared with the corresponding non-deuterated methylone hydrochloride” value is reported as “most significant difference in half-life and intrinsic clearance”.
With Cl.[2H]C1([2H])Oc2ccc(C(=O)C(C)NC)cc2O1 (racemic) [(rac)-Methylone-d2 hydrochloride, 1-(benzo[d][1,3]dioxol-5-yl-2,2-d2)-2-((methyl)amino)propan-1-one HCl] the “difference in half-life and intrinsic clearance compared with the corresponding non-deuterated methylone hydrochloride” value was “differences in half-life and intrinsic clearance”.
For Cl.[2H]C([2H])([2H])N[C@@H](C)C(=O)c1ccc2c(c1)OC([2H])([2H])O2 [(S)-Methylone-d5 hydrochloride, (S)-1-(benzo[d][1,3]dioxol-5-yl-2,2-d2)-2-((methyl-d3)amino)propan-1-one hydrochloride], the “difference in half-life and intrinsic clearance compared with the corresponding non-deuterated methylone hydrochloride” value was “most significant difference in half-life and intrinsic clearance” and the “CLint (μL/min/mg protein)” value was 9.07 μL/min/mg protein.
With Cl.[2H]C([2H])([2H])NC(C)C(=O)c1ccc2c(c1)OCO2 (racemic) [(rac)-Methylone-d3 hydrochloride, 1-(benzo[d][1,3]dioxol-5-yl)-2-((methyl-d3)amino)propan-1-one HCl] the “difference in half-life and intrinsic clearance compared with the corresponding non-deuterated methylone hydrochloride” value was “differences in half-life and intrinsic clearance”.
